Measurements reported in US20060069132A1, “Azolecarboxamide herbicides” (priority 2004, published 2006).

What was measured:
[1] = system: barnyardgrass; test: Test A pre-/postemergence herbicide test; assay type: in vivo, Echinochloa crus-galli; details: for Plant response rating, Barnyardgrass: Postemergence; for Barnyardgrass plant response rating: Preemergence
Outline: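 Plants are held in greenhouse about ten days after treatment, then compared with untreated controls and scored 0 (no effect) to 100 (complete control). Preemergence dosing is a directed soil spray on sown sandy loam; postemergence dosing is spray to runoff at 2–10 cm height.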

[2] = system: cocklebur; test: Test C pre-/postemergence herbicide test; assay type: in vivo, Xanthium strumarium; details: for Cocklebur plant response rating: 500 g ai/ha
Outline: (§1)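 Greenhouse-grown plants were evaluated visually 12 to 14 days after treatment, with 100 meaning complete control and 0 no effect. Application was preemergence, or postemergence at 2 to 18 cm.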

[3] = system: corn; test: Test C pre-/postemergence herbicide test; assay type: in vivo, Zea mays; details: for Corn plant response rating: 500 g ai/ha
Outline: as §1

[4] = system: large crabgrass; test: Test C pre-/postemergence herbicide test; assay type: in vivo, Digitaria sanguinalis; details: for Crabgrass, Large plant response rating: 500 g ai/ha
Outline: as §1

[5] = system: lambsquarters; test: Test C pre-/postemergence herbicide test; assay type: in vivo, Chenopodium album; details: for Lambsquarters plant response rating: 500 g ai/ha
Outline: as §1

[6] = system: eastern black nightshade; test: Test C pre-/postemergence herbicide test; assay type: in vivo, Solanum ptycanthum; details: for Plant response rating (0 = no effect, 100 = complete control), Nightshade: 62 g ai/ha; for Plant response rating (0 = no effect, 100 = complete control), Nightshade / Plant response rating, Nightshade: preemergence; for Plant response rating, Nightshade: visual, 12 to 14 days; for Nightshade plant response rating: Preemergence, 500 g ai/ha, scale 0 to 100, 0 no effect, 100 complete control
Outline: as §1

[7] = system: pigweed; test: Test C pre-/postemergence herbicide test; assay type: in vivo, Amaranthus retroflexus; details: for Pigweed plant response rating: 500 g ai/ha
Outline: as §1

[8] = system: common ragweed; test: Test C pre-/postemergence herbicide test; assay type: in vivo, Ambrosia elatior; parameters: key to Plant response rating, Ragweed: 0 = no effect, 100 = complete control; details: for Ragweed plant response rating: 500 g ai/ha
Outline: as §1

[9] = system: common (oilseed) sunflower; test: Test C pre-/postemergence herbicide test; assay type: in vivo, Helianthus annuus; details: for Plant response rating (0 = no effect, 100 = complete control), Sunflower: 62 g ai/ha; for Plant response rating (0 = no effect, 100 = complete control), Sunflower / Plant response rating, Sunflower: preemergence; for Plant response rating, Sunflower: visual, 12 to 14 days; for Sunflower plant response rating: Preemergence, 500 g ai/ha, scale 0 to 100, 0 no effect, 100 complete control
Outline: as §1

[10] = system: velvetleaf; test: Test C pre-/postemergence herbicide test; assay type: in vivo, Abutilon theophrasti; details: for Velvetleaf plant response rating: 500 g ai/ha
Outline: as §1

[11] = system: smallflower umbrella sedge; test: Test C flooded paddy test; assay type: in vivo, Cyperus difformis; details: for Plant response rating, Sedge, Umbrella: 500 g ai/ha, visual rating after 12 to 14 days
[12] = system: ducksalad; test: Test C flooded paddy test; assay type: in vivo, Heteranthera limosa; details: for Plant response rating, Ducksalad: 500 g ai/ha, visual rating after 12 to 14 days
[13] = system: barnyardgrass; test: Test C flooded paddy test; assay type: in vivo, Echinochloa crus-galli; details: for Plant response rating, Barnyardgrass: 500 g ai/ha, visual rating after 12 to 14 days
Outline: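 Injury scored visually against controls on a 0 (no effect) to 100 (complete control) scale, 12 to 14 days after treatment in greenhouse. Flooded paddy plants treated at 2-leaf stage; postemergence plants at 1- to 4-leaf stage, 2 to 18 cm tall.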

[14] = 500 g ai/ha, 0 to 100 scale, 0 no effect, 100 complete control
[15] = 2000 g ai/ha, 0 to 100 scale, 0 no effect, 100 complete control
[16] = 500 g ai/ha, visual rating, 0 to 100 scale (0 no effect, 100 complete control)
[17] = 125 g ai/ha, scale 0 (no effect) to 100 (complete control), visual, 12 to 14 days, preemergence
[18] = 250 g ai/ha, scale 0 to 100 (0 no effect, 100 complete control), visual, 12 to 14 days, preemergence
[19] = Postemergence, 125 g ai/ha, scale 0 to 100, 0 no effect, 100 complete control
[20] = Postemergence, 250 g ai/ha, scale 0 to 100, 0 no effect, 100 complete control
[21] = Preemergence, scale 0 to 100, 0 no effect, 100 complete control
[22] = postemergence, 62 g ai/ha, scale 0 to 100
[23] = 125 g ai/ha, scale 0 (no effect) to 100 (complete control)
[24] = 250 g ai/ha, scale 0 to 100 (0 no effect, 100 complete control)
[25] = 62 g ai/ha, scale 0 to 100 (0 no effect, 100 complete control)
[26] = 125 g ai/ha, scale of 0 to 100, 0 is no effect, 100 is complete control
[27] = 250 g ai/ha, scale of 0 to 100, 0 is no effect, 100 is complete control
[28] = scale 0 to 100 (0 no effect, 100 complete control)

CCNC(=O)c1cc(NC(=O)c2cc(C(C)(C)C)nn2CC)ccc1F [Compound 58]
Plant response rating, Barnyardgrass [1, 14]: 70
Plant response rating, Barnyardgrass [1, 15]: 80
Barnyardgrass plant response rating [1, 16]: 65
Barnyardgrass plant response rating [1, 15]: 75
Plant response rating (0 = no effect, 100 = complete control), Cocklebur ([2]; 62 g ai/ha, preemergence): 0
Plant response rating, Cocklebur [2, 17]: 5
Plant response rating, Cocklebur [2, 18]: 10
Cocklebur plant response rating ([2]; Postemergence, scale 0 to 100): 50
Plant response rating, Cocklebur [2, 19]: 20
Plant response rating, Cocklebur [2, 20]: 20
Cocklebur plant response rating [2, 21]: 30
Plant response rating, Cocklebur [2, 22]: 15
Plant response rating (0 = no effect, 100 = complete control), Corn ([3]; 62 g ai/ha, preemergence): 0
Plant response rating, Corn [3, 17]: 0
Plant response rating, Corn [3, 18]: 0
Corn plant response rating ([3]; Postemergence, scale 0 to 100): 15
Plant response rating, Corn [3, 19]: 5
Plant response rating, Corn [3, 20]: 5
Corn plant response rating [3, 21]: 0
Plant response rating, Corn [3, 22]: 0
Plant response rating (0 = no effect, 100 = complete control), Crabgrass, Large ([4]; 62 g ai/ha, preemergence): 90
Plant response rating, Crabgrass, Large [4, 17]: 95
Plant response rating, Crabgrass, Large [4, 18]: 95
Crabgrass, Large plant response rating ([4]; Postemergence, scale 0 to 100): 30
Plant response rating, Crabgrass, Large [4, 19]: 5
Plant response rating, Crabgrass, Large [4, 20]: 15
Crabgrass, Large plant response rating [4, 21]: 95
Plant response rating, Crabgrass, Large [4, 22]: 5
Plant response rating (0 = no effect, 100 = complete control), Lambsquarters ([5]; 62 g ai/ha, preemergence): 100
Plant response rating, Lambsquarters [5, 17]: 100
Plant response rating, Lambsquarters [5, 18]: 100
Lambsquarters plant response rating ([5]; Postemergence, scale 0 to 100): 90
Plant response rating, Lambsquarters [5, 20]: 90
Lambsquarters plant response rating [5, 21]: 100
Plant response rating, Lambsquarters [5, 22]: 60
Plant response rating (0 = no effect, 100 = complete control), Nightshade [6]: 95
Plant response rating, Nightshade [6, 23]: 100
Plant response rating, Nightshade [6, 24]: 100
Nightshade plant response rating [6]: 100
Plant response rating (0 = no effect, 100 = complete control), Pigweed ([7]; 62 g ai/ha, preemergence): 100
Plant response rating, Pigweed [7, 17]: 100
Plant response rating, Pigweed [7, 18]: 100
Pigweed plant response rating ([7]; Postemergence, scale 0 to 100): 85
Plant response rating, Pigweed [7, 20]: 70
Pigweed plant response rating [7, 21]: 100
Plant response rating, Pigweed [7, 22]: 60
Plant response rating (0 = no effect, 100 = complete control), Ragweed ([8]; 62 g ai/ha, preemergence): 60
Plant response rating, Ragweed [8, 17]: 85
Plant response rating, Ragweed [8, 18]: 100
Ragweed plant response rating ([8]; Postemergence, scale 0 to 100): 85
Plant response rating, Ragweed [8, 20]: 5
Ragweed plant response rating [8, 21]: 100
Plant response rating, Ragweed [8, 22]: 0
Plant response rating (0 = no effect, 100 = complete control), Sunflower [9]: 0
Plant response rating, Sunflower [9, 23]: 0
Plant response rating, Sunflower [9, 24]: 0
Sunflower plant response rating [9]: 0
Plant response rating, Velvetleaf [10, 17]: 100
Plant response rating, Velvetleaf [10, 18]: 100
Velvetleaf plant response rating ([10]; Postemergence, scale 0 to 100): 60
Plant response rating, Velvetleaf [10, 20]: 35
Velvetleaf plant response rating [10, 21]: 100
Plant response rating, Velvetleaf [10, 22]: 10
Sedge, Umbrella plant response rating [11, 25]: 0
Sedge, Umbrella plant response rating [11, 26]: 20
Sedge, Umbrella plant response rating [11, 27]: 50
Plant response rating, Sedge, Umbrella [11, 28]: 65
Ducksalad plant response rating [12, 25]: 0
Ducksalad plant response rating [12, 26]: 15
Ducksalad plant response rating [12, 27]: 20
Plant response rating, Ducksalad [12, 28]: 60
Barnyardgrass plant response rating [13, 25]: 0
Barnyardgrass plant response rating [13, 26]: 10
Barnyardgrass plant response rating [13, 27]: 35
Plant response rating, Barnyardgrass [13, 28]: 85

CCn1nc(C(C)(C)C)cc1C(=O)Nc1cccc2c1CCN(C1CC1)C2=O [Compound 64]
Plant response rating, Barnyardgrass [1, 14]: 30
Plant response rating, Barnyardgrass [1, 15]: 75
Barnyardgrass plant response rating [1, 16]: 55
Barnyardgrass plant response rating [1, 15]: 85
Plant response rating (0 = no effect, 100 = complete control), Cocklebur ([2]; 62 g ai/ha, preemergence): 0
Plant response rating, Cocklebur [2, 17]: 0
Plant response rating, Cocklebur [2, 18]: 0
Cocklebur plant response rating [2, 21]: 0
Plant response rating (0 = no effect, 100 = complete control), Corn ([3]; 62 g ai/ha, preemergence): 0
Plant response rating, Corn [3, 17]: 0
Plant response rating, Corn [3, 18]: 0
Corn plant response rating [3, 21]: 30
Plant response rating (0 = no effect, 100 = complete control), Crabgrass, Large ([4]; 62 g ai/ha, preemergence): 0
Plant response rating, Crabgrass, Large [4, 17]: 40
Plant response rating, Crabgrass, Large [4, 18]: 70
Crabgrass, Large plant response rating [4, 21]: 90
Plant response rating (0 = no effect, 100 = complete control), Lambsquarters ([5]; 62 g ai/ha, preemergence): 0
Plant response rating, Lambsquarters [5, 17]: 0
Lambsquarters plant response rating [5, 21]: 90
Plant response rating (0 = no effect, 100 = complete control), Nightshade [6]: 0
Plant response rating, Nightshade [6, 23]: 50
Nightshade plant response rating [6]: 95
Plant response rating (0 = no effect, 100 = complete control), Pigweed ([7]; 62 g ai/ha, preemergence): 30
Plant response rating, Pigweed [7, 17]: 70
Pigweed plant response rating [7, 21]: 100
Plant response rating (0 = no effect, 100 = complete control), Ragweed ([8]; 62 g ai/ha, preemergence): 0
Plant response rating, Ragweed [8, 17]: 0
Ragweed plant response rating [8, 21]: 20
Plant response rating (0 = no effect, 100 = complete control), Sunflower [9]: 0
Plant response rating, Sunflower [9, 23]: 0
Sunflower plant response rating [9]: 0
Plant response rating, Velvetleaf [10, 17]: 30
Velvetleaf plant response rating [10, 21]: 60
Sedge, Umbrella plant response rating [11, 25]: 0
Sedge, Umbrella plant response rating [11, 26]: 25
Sedge, Umbrella plant response rating [11, 27]: 35
Plant response rating, Sedge, Umbrella [11, 28]: 75
Ducksalad plant response rating [12, 25]: 0
Ducksalad plant response rating [12, 26]: 10
Ducksalad plant response rating [12, 27]: 25
Plant response rating, Ducksalad [12, 28]: 40
Barnyardgrass plant response rating [13, 25]: 0
Barnyardgrass plant response rating [13, 26]: 0
Barnyardgrass plant response rating [13, 27]: 0
Plant response rating, Barnyardgrass [13, 28]: 35
